In a melting point compilation (Tetko et al.; mined from patent text by program, amines drawn as free bases though some values may be those of a salt):

**Q.** With `CCN(CC)Cc1nc(-c2ncn3c2CN(C)C(=O)c2c(Cl)cccc2-3)no1` as the compound, how does the melting point read?
**A.** 250 to 252 °C

**Q.** With `O=C(Nc1c(Cl)cccc1Cl)c1cccc2cccnc12` as the compound, how does the melting point read?
**A.** 168 to 169 °C

**Q.** Which melting point does the source give for `NC(=CC(=O)c1ccncc1)C1CC1` here?
**A.** 124 to 125 °C

**Q.** With `C[C@@H]1OC(=O)[C@H]2[C@H]3O[C@H]([C@H]4CCCC[C@H]43)[C@@H]21` as the compound, how does the melting point read?
**A.** 148 to 149 °C

**Q.** With `NC(=O)N1CCC(O[N+](=O)[O-])CC1` as the compound, how does the melting point read?
**A.** 110 to 111 °C

**Q.** Which melting point does the source give for `CSc1cc2c(cc1C(F)(F)F)N(C(=O)Nc1cccc(C(=O)NCCN3CCCCC3)c1)CC2` here?
**A.** 79 to 81 °C

**Q.** With `CC(CC(=O)Nc1c(Cl)ccc2nc(N3CCC(NCCCO)C3)ccc12)c1ccccc1` (configuration not stated) as the compound, how does the melting point read?
**A.** 155 to 158 °C

**Q.** With `CCOC(=O)c1ccc(C2=NOCCS2)cc1` as the compound, how does the melting point read?
**A.** 69 to 70 °C

**Q.** Which melting point does the source give for `CCOC(=O)C(=NO)c1csc(C)n1` here?
**A.** 90 to 92 °C

**Q.** Which melting point does the source give for `COC(=O)[C@@H]1CCCN1S(=O)(=O)c1ccc(C)c(C(=O)Cl)c1C` here?
**A.** 92 °C

**Q.** Which melting point does the source give for `COc1ccc2c(n1)C1(CO2)C(=O)N(Cc2ncc(Cl)n2C)c2ccccc21` (configuration not stated) here?
**A.** 169 to 171 °C

**Q.** For `C#Cc1ccc(C(=O)OC)c(O)c1`, which melting point is on record?
**A.** 62 °C

**Q.** Which melting point does the source give for `Cn1c(C(F)(F)F)c([N+](=O)[O-])c2ccc(Cl)cc21` here?
**A.** 157 to 160 °C

**Q.** Which melting point does the source give for `CC1(C)CC(=O)c2c(nc(Cc3ccc(O)c(F)c3)c3[nH]c4ccccc4c23)C1` here?
**A.** 216 to 218 °C

**Q.** For `CCCc1ncc(CCCCC(=O)O)s1`, which melting point is on record?
**A.** 124 °C

**Q.** For `C=CC(=O)NC(=O)NCCCl`, which melting point is on record?
**A.** 156 to 158 °C

**Q.** With `Cc1ccc(C2CC(=O)c3ccccc3N2)cc1` (configuration not stated) as the compound, how does the melting point read?
**A.** 144 to 146 °C

**Q.** For `O=C(Cn1c(-c2ccc(Cl)cc2)nc2ncccc21)c1ccccc1`, which melting point is on record?
**A.** 262 to 263 °C

**Q.** With `Cc1ccc(C=CC(=O)C=Cc2ccc([N+](=O)[O-])cc2)cc1` as the compound, how does the melting point read?
**A.** 182 to 184 °C

**Q.** With `C[C@H](N)Cn1ncc2ccc(C(N)=O)cc21` as the compound, how does the melting point read?
**A.** 170 to 172 °C

**Q.** For `CC(C)Oc1ccc(Cc2ccc(NC3=NCCN3)cc2)s1`, which melting point is on record?
**A.** 134 to 135 °C

**Q.** For `CCCN(CC)C(C)CN1CCc2c(c(=O)oc3cc(OC)c(OC)cc23)C1` (configuration not stated), which melting point is on record?
**A.** 93 to 96 °C

**Q.** For `COC(=O)C=C(C)c1ccc(-c2ccc(F)cc2F)cc1`, which melting point is on record?
**A.** 90 to 92 °C

**Q.** For `CC(=O)OCC(CO)CCn1cnc2c(=O)[nH]c(N)nc21` (configuration not stated), which melting point is on record?
**A.** 194 to 200 °C

**Q.** Which melting point does the source give for `COc1cccc(-c2nc3n(n2)Cc2cc(Cl)ccc2-3)c1` here?
**A.** 229 to 230 °C

**Q.** Which melting point does the source give for `Cc1c(F)c(N2CCNCC2)c(C)c2c1c(=O)c(C(=O)O)cn2C1CC1` here?
**A.** 185 to 187 °C

**Q.** With `CCOC(=O)c1cnc2n(c1=O)CCCCC2` as the compound, how does the melting point read?
**A.** 82 to 84 °C

**Q.** Which melting point does the source give for `O=C1CC(=O)CC(c2ccc(Cl)cc2Cl)C1` here?
**A.** 192 to 196 °C

**Q.** For `CC(=O)Oc1ccc(C(CN(C(C)=O)C(C)(C)C)OC(C)=O)nc1C` (configuration not stated), which melting point is on record?
**A.** 124 to 128 °C

**Q.** For `O=C1CCC(N2C(=O)c3cccc(NCc4ccco4)c3C2=O)C(=O)N1` (configuration not stated), which melting point is on record?
**A.** 171 to 173 °C

**Q.** With `Cc1ccc(C=Nc2c(-c3ccccc3C)nc3c4ccccc4ccn23)cc1` as the compound, how does the melting point read?
**A.** 160 °C

**Q.** Which melting point does the source give for `COC(=O)c1c(C(F)(F)F)[nH]c2c(OCc3ccccc3)cc3c(c12)C(CCl)CN3C(=O)OC(C)(C)C` (configuration not stated) here?
**A.** 162 °C

**Q.** Which melting point does the source give for `Cc1c(C(=O)O)oc2c(C(=O)c3ccc(Cl)cc3)cc(C(C)(C)C)c(O)c12` here?
**A.** 214 to 216 °C

**Q.** Which melting point does the source give for `CN(C)CC=CC(=O)Nc1ccc2ncnc(Nc3cccc(Br)c3)c2c1` here?
**A.** 215 to 217 °C

**Q.** For `Cc1nc(C(=O)NN)c2n1-c1ccc(Cl)cc1C(c1ccccc1)NC2` (configuration not stated), which melting point is on record?
**A.** 225 to 230 °C

**Q.** Which melting point does the source give for `Cc1ccc(Oc2ccc(Br)cc2O)c(O)c1` here?
**A.** 95 to 97 °C

**Q.** With `O=[N+]([O-])N=c1ccccn1Cc1ccccc1` as the compound, how does the melting point read?
**A.** 125 to 126 °C

**Q.** Which melting point does the source give for `COc1ccc(C(=O)NCCSSCCNC(=O)c2ccc(OC)cc2)cc1` here?
**A.** 136 to 138 °C

**Q.** For `O=C1CCN(C(=O)N2CCN3C(=O)OC(c4ccccc4)(c4ccccc4)C3C2)c2ccccc21` (configuration not stated), which melting point is on record?
**A.** 202 to 205 °C

**Q.** Which melting point does the source give for `COc1cccc([C@H]2CCCN2[S@@](=O)C(C)(C)C)c1` here?
**A.** 45 to 50 °C

**Q.** Which melting point does the source give for `CC1CCCN(C(=O)C2Cc3ccc(F)cc3N2c2ccc(=O)n(C)n2)C1` (configuration not stated) here?
**A.** 219 to 222 °C

**Q.** For `CN1CCN(C(c2ccc(Cl)cc2)c2ccccc2C(=O)O)CC1` (configuration not stated), which melting point is on record?
**A.** 144 to 150 °C

**Q.** Which melting point does the source give for `Nc1ccc(C(=O)N2CCCC(=O)c3sccc32)cc1` here?
**A.** 216 to 218 °C

**Q.** Which melting point does the source give for `CCS(=O)(=O)c1cc(S(N)(=O)=O)sc1S(=O)(=O)CC` here?
**A.** 176 to 177 °C

**Q.** With `CCCn1nc(C(C)C)c(C(=O)OCOC(=O)C(C)(C)C)c1Cc1ccc(-c2ccccc2-c2nnn[nH]2)cc1` as the compound, how does the melting point read?
**A.** 62 to 67 °C

**Q.** Which melting point does the source give for `CC(C)Cc1ccc2c(c1)OC(=O)C2` here?
**A.** 24 to 25 °C

**Q.** With `CC(C)(C)c1ccc(OP2N(C(C)(C)C)P(Oc3ccc(C(C)(C)C)cc3C(C)(C)C)N2C(C)(C)C)c(C(C)(C)C)c1` (configuration not stated) as the compound, how does the melting point read?
**A.** 205 to 210 °C

**Q.** With `COc1ccnc(CSc2nc3cscc3n2CO)c1` as the compound, how does the melting point read?
**A.** 125 to 127 °C

**Q.** For `C=Cc1ncc2c(c1COC)c1c(OCc3ccccc3)cccc1n2S(=O)(=O)c1ccc(C)cc1`, which melting point is on record?
**A.** 141 to 143 °C

**Q.** With `COc1nc(C(Br)Br)c([N+](=O)[O-])cc1C` as the compound, how does the melting point read?
**A.** 58.7 to 61.2 °C

**Q.** Which melting point does the source give for `C[C@@H](C(N)=O)c1ccc(NS(=O)(=O)c2cccs2)cc1` here?
**A.** 58 to 60 °C

**Q.** With `N=C(NC=Cc1ccc([N+](=O)[O-])cc1)c1ccc([N+](=O)[O-])cc1` as the compound, how does the melting point read?
**A.** 214 to 216 °C
